In brackets after ≈: the same amount, converted by molar mass. One block for each molecule: values may come before it.
Experiments:
[1] = solubility under the anti-T. gondii protocol conditions; format: physicochemical; conditions: anti-T. gondii assay protocol, 1 to 100 µg/mL
Experimental: In the next step of our studies, the prepared 1,4-disubstituted thiosemicarbazides (series 1–3) were used to assess the inhibition of T. gondii growth in vitro. For this purpose, intracellular parasites (tachyzoites) of RH strain were incubated with different concentrations of the thiosemicarbazides ranging from 1 to 100 µg/mL. Inhibition of the parasite growth was monitored by measuring the specific incorporation of [^3H]uracil in the parasite’s nucleic acids. Unfortunately, among the 15 compounds tested, derivatives 1a–1e, 1k, 1l, 2f, 2i, 2j, and 3h were insoluble under the protocol conditions and, consequently, they were eliminated from further experiments. The percentages of the parasite growth inhibition in L929 cells by the remaining compounds 1g, 2b, 3d, 3l and the control drug-sulfadiazine as well as IC50 values are shown in Table 1.
A preliminary assumption was thus put forward that the presence of both the five-membered hetaryl moiety at N1 position and the aryl moiety at N4 position of thiosemicarbazide core are the key functionalities required for potent anti-T. gondii activity of thiosemicarbazide-based compounds, which may be directly linked with the electronic structure of the molecule. In order to verify the preliminary hypothesis, 4-ethyl-1-(thiophen-2-yl)carbonylthiosemicarbazide (1m), 4-cyclohexyl-1-(thiophen-2-yl)carbonylthiosemicarbazide (1n), and 4-ethyl-1-(2-methylfuran-3-yl)carbonylthio-semicarbazide (2m) were synthesized and their bioactivity was tested. Unfortunately, derivatives 1m and 1n were insoluble under the protocol conditions and, consequently, they were eliminated from further experiments. […] The assumption of the existence of the relationship between the anti-T. gondii activity of the studied thiosemicarbazides and their molecular structure was also confirmed based on DFT calculations. Figure 3 illustrates the electrostatic potential mapped on the density surface using the Gaussview program. Neutral fragments are characterized by the green color of the surface. The negative charge is represented by red, while the positive charge is marked in blue. If compound 1g is excluded from the consideration, the biological activity correlates well with the dipole moment of the molecule. In this series it seems that the activity depends on the bimodal partial negative charge developed on the carbonyl oxygen and another moiety on the same side of the molecule (a sulfur atom in 2b and 3d). Its low value in 3l and lack in 2m may be responsible for the lower activity. […] It contains, however, two partial negative charge centers as the series discussed above and an additional such center on the fluorine atom. Comparison of the biological activity of 1g and 2m seems to indicate the crucial role of the second negative charge density on the top of the molecule on a moiety other than the carbonyl oxygen. Another observation that comes from the analysis of the presented structures is that the biological activity is pronounced when the methyl group of the five-membered ring is directed away from the carbonyl group.

L929 cells = experiment: MTT cell viability assay (ISO 10993-5); format: cell-based, mouse; conditions: for viability of L929 cells: 24 h, ± SD; for CC30 (concentration required for 30% proliferation inhibition in vitro): L929 cells
Experimental: (§1) Cell line L929 (ATTC® Catalog No. […] The MTT assay was used according to international standards: ISO 10993-5:2009(E), Biological evaluation of medical devices, Part 5: Tests for in vitro cytotoxicity. […] Then, 1 mg/mL MTT (50 μL/well) was added to each well and incubated at 37 °C, 10% CO2 for 2 h. Mitochondrial dehydrogenases of viable cells reduced the yellowish water-soluble MTT to water-insoluble formazan crystals, which were solubilized with dimethyl sulfoxide (DMSO). The cell culture medium was aspirated cautiously, after which 150 μL DMSO was added to each well and mixed thoroughly. Optical density (OD) was read on the ELISA reader (Multiskan EX, Labsystems, Vienna, VA, USA) at 550 nm. […] All experiments were performed in triplicate.

[2] = tested on: Gram-positive and Gram-negative bacterial strains; experiment: antibacterial assay (disc diffusion / agar dilution); format: cell-based; conditions: even at high concentrations
From the text: The following microorganisms were used in this study: Staphylococcus aureus (ATCC 25923, ATCC 6538, ATCC 29213, NCTC 4163), Staphylococcus epidermidis ATCC 12228, Bacillus subtilis ATCC 6633, Bacillus cereus ATCC 11778, Micrococcus luteus (ATCC 9341, ATCC 10240), Escherichia coli (ATCC 10538, ATCC 25922, NCTC 8196), […] NCTC 4635, Pseudomonas aeruginosa (ATCC 15442, ATCC 27853, NCTC 6749), and Bordetella bronchiseptica ATCC 4617. Initially, antibacterial activity of thiosemicarbazide derivatives was screened on the basis of growth inhibition zone (giz) utilizing the disc diffusion method, according to the Clinical and Laboratory Standards Institute guidelines. For compounds showing the inhibitory effect on the growth of tested bacteria, monitored as an appearance of giz, the minimal inhibitory concentrations (MICs) were determined using agar dilution method, according to the Clinical and Laboratory Standards Institute guidelines. The minimal inhibitory concentrations (MICs) were defined as the lowest concentration of the compound preventing growth of the tested microorganism. In both methods, recommended Mueller-Hinton II agar medium (Becton Dickinson, Heidelberg, Germany) was used. Solutions containing the tested agents were prepared in methanol or DMSO. Ciprofloxacin was used as control antimicrobial agent.

T. gondii RH strain = experiment: quantitative real-time PCR (B1 gene) of T. gondii in infected L929 cells; format: cell-based, Toxoplasma gondii; conditions: assay B qRT-PCR, L929 host cells
Experimental: T. gondii genomic DNA was isolated from the tachyzoites of RH strain with Wizard® SV Genomic DNA Purification System (Promega, Madison, WI, USA) according to the manufacturer’s instruction. The DNA concentration and purity were measured using a NanoPhotometer (Implen, München, Germany), while the integrity of the extracted DNA was tested using an ethidium bromide-stained agarose gel. DNA was used for the detection and quantitationof T. gondii in analyzed samples and it was stored at −20 °C until use.
A quantitative real-time PCR (qRT-PCR) assay, targeting B1 gene was performed to detect and to quantitate T. gondii in analyzed samples (1g, 2b, 2m, 3d, 3l and sulphadiazine) according to the modified protocol of Wahab et al.. […] Amplification was carried out on a 7900HT real-time PCR system (Applied Biosystems, Carlsbad, CA, USA). The reaction mixtures (25 µL) consisted of 1x TaqMan PCR master mix supplemented with ROX (Applied Biosystems), 300 nM probe, 900 nM of each primer and 2 µL of template DNA. For quantification a standard curve was constructed using 10-fold serial dilutions of DNA extracted from a known number of T. gondii. The cycling parameters were: 50 °C for 2 min, initial activation at 95 °C for 10 min, and 45 two-step cycles of 95 °C for 15 s and 60 °C for 1 min. All samples were analyzed in triplicate.

[3] = tested on: T. gondii RH strain tachyzoites; experiment: [3H]uracil incorporation assay of T. gondii proliferation in L929 host cells; format: cell-based, Toxoplasma gondii; conditions: assay A [3H]uracil incorporation; for intensity of T. gondii proliferation: vs untreated blank
Experimental: In the next step of our studies, the prepared 1,4-disubstituted thiosemicarbazides (series 1–3) were used to assess the inhibition of T. gondii growth in vitro. For this purpose, intracellular parasites (tachyzoites) of RH strain were incubated with different concentrations of the thiosemicarbazides ranging from 1 to 100 µg/mL. Inhibition of the parasite growth was monitored by measuring the specific incorporation of [^3H]uracil in the parasite’s nucleic acids.
The tachyzoites of T. gondii strain RH – intraspecies type I (ATCC_ Number 50174™) were maintained through passages on female C57BL/6 (H-2^b) and BALB/c (H-2^d) mice with genetically determined high and low susceptibility (respectively) to T. gondii infection (10–12 weeks old). Tachyzoites washed out from the peritoneum cavity were once expanded in vitro on L929 cells.
L929, (2 × 10^4 cells/100 µL/well) were grown in complete medium (IMDM) on 96-well plates. After 24 h incubation, a medium was removed and then T. gondii RH tachyzoites, suspended in culture medium supplemented with 1.0, 5.0, 10.0, 50.0 and 100.0 μg/mL 1,4-disubstituted thiosemicarbazides (1g, 2b, 2m, 3d, 3l) and as a control-sulfadiazine, were added (2 × 10^5 tachyzoites/200 µL/well) to the cell monolayers. After subsequent 48 h incubation 1 µCi/well of [^3H] uracil (Moravek Biochemicals Inc., Brea, CA, USA) was applied to each microculture for further 18–20 h. The amount of the isotope incorporated into the parasite nucleic acid pool, corresponding to the parasite growth, was measured by liquid scintillation counting with 1450 Microbeta Plus Liquid Scintillation Counter (Wallac Oy, Turku, Finland).

[4] = tested on: T. gondii RH strain tachyzoites; experiment: [3H]uracil incorporation assay of T. gondii proliferation in L929 host cells; format: cell-based; conditions: Toxoplasma gondii, L929, read-out: IC50 (50% of T. gondii proliferation inhibition in vitro)
[5] = MTT cell viability assay (ISO 10993-5); format: cell-based, mouse; conditions: mouse, L929 mouse fibroblast cells, 24 h, ± SD
Experimental: as §1

solubility under the protocol conditions [1]: insoluble
Molecule: Cc1nnsc1C(=O)NNC(=S)Nc1ccc(Cl)cc1 [Compound 3h]

Molecule: 4-ethyl-1-(2-methylfuran-3-yl)carbonylthio-semicarbazide [Compound 2m]
viability of L929 cells (L929 cells; 1 µg/mL): 104.05 ± 0.12%
viability of L929 cells (L929 cells; 5 µg/mL): 94.44 ± 2.62%
viability of L929 cells (L929 cells; 10 µg/mL): 94.05 ± 5.13%
viability of L929 cells (L929 cells; 50 µg/mL): 90.49 ± 2.99 %
viability of L929 cells (L929 cells; 100 µg/mL): 92.17 ± 2.31 %
viability of L929 cells (L929 cells; 500 µg/mL): 80.40 ± 2.74 %
CC30 (concentration required for 30% proliferation inhibition in vitro) (L929 cells): >500 µg/mL
growth-inhibiting effect on bacterial strains [2]: no growth-inhibiting effect
intensity of T. gondii proliferation (T. gondii RH strain; 50 µg/mL): 51.03 ± 7.02 %
intensity of T. gondii proliferation (T. gondii RH strain; 100 µg/mL): 53.03 ± 9.87 %
intensity of T. gondii proliferation ([3]; 1 µg/mL): 98.00 ± 19.53%
intensity of T. gondii proliferation ([3]; 5 µg/mL): 75.74 ± 14.62%
intensity of T. gondii proliferation ([3]; 10 µg/mL): 60.61 ± 9.56 %
intensity of T. gondii proliferation ([3]; 50 µg/mL): 66.49 ± 11.38 %
intensity of T. gondii proliferation ([3]; 100 µg/mL): 57.59 ± 15.02 %
IC50 (50% of T. gondii proliferation inhibition in vitro) [3]: 191.04 µg/mL

solubility under the protocol conditions [1]: insoluble
Molecule: Cc1occc1C(=O)NNC(=S)Nc1ccc(Br)cc1 [Compound 2i]

melting point: 188 to 190 °C
Molecule: Cc1cccc(NC(=S)NNC(=O)c2cccs2)c1 [Compound 1e, 4-(3-Methylphenyl)-1-(thiophen-2-yl)carbonylthiosemicarbazide]

solubility under the protocol conditions [1]: insoluble
Molecule: O=C(NNC(=S)NC1CCCCC1)c1cccs1 [Compound 1n, 4-cyclohexyl-1-(thiophen-2-yl)carbonylthiosemicarbazide]

solubility under the protocol conditions [1]: insoluble
Molecule: O=C(NNC(=S)Nc1ccc(F)cc1F)c1cccs1 [Compound 1l]

melting point: 155 to 157 °C
Molecule: Cc1ccccc1NC(=S)NNC(=O)c1cccs1 [Compound 1b, 4-(2-Methylphenyl)-1-(thiophen-2-yl)carbonylthiosemicarbazide]

solubility under the protocol conditions [1]: insoluble
Molecule: Cc1occc1C(=O)NNC(=S)Nc1ccc(I)cc1 [Compound 2j]

Molecule: CCN=C(S)NNC(=O)c1cccs1 [Compound 1m, 4-ethyl-1-(thiophen-2-yl)carbonylthiosemicarbazide]
solubility under the protocol conditions [1]: insoluble

solubility under the protocol conditions [1]: insoluble
Molecule: Cc1ccc(NC(=S)NNC(=O)c2ccoc2C)cc1 [Compound 2f]

solubility under the protocol conditions [1]: insoluble
Molecule: O=C(NNC(=S)Nc1ccc([N+](=O)[O-])cc1)c1cccs1 [Compound 1k]

Molecule: Cc1ccccc1NC(=S)NNC(=O)c1ccoc1C [Compound 2b]
IC50 [4]: 59 µg/mL (≈ 204 µM)
CC30 (concentration required for 30% proliferation inhibition in vitro) (L929 cells): 187.51 µg/mL
viability at 24 h, 1 µg/mL ([5]; 1 µg/mL): 95.3 ± 9.52%
viability at 24 h, 5 µg/mL ([5]; 5 µg/mL): 94 ± 1.78%
viability at 24 h, 10 µg/mL ([5]; 10 µg/mL): 91.9 ± 5.21%
viability at 24 h, 50 µg/mL ([5]; 50 µg/mL): 84.5 ± 1.43%
viability at 24 h, 100 µg/mL ([5]; 100 µg/mL): 78.2 ± 1.61%
viability at 24 h, 500 µg/mL ([5]; 500 µg/mL): 30.3 ± 0.86%
growth-inhibiting effect on bacterial strains [2]: no growth-inhibiting effect
intensity of T. gondii proliferation (T. gondii RH strain; 50 µg/mL): 41.37 ± 9.98 %
intensity of T. gondii proliferation (T. gondii RH strain; 100 µg/mL): 7.29 ± 1.56 %
intensity of T. gondii proliferation ([3]; 1 µg/mL): 98.24 ± 23.83%
intensity of T. gondii proliferation ([3]; 5 µg/mL): 107.95 ± 24.88%
intensity of T. gondii proliferation ([3]; 10 µg/mL): 112.25 ± 22.91 %
intensity of T. gondii proliferation ([3]; 50 µg/mL): 58.78 ± 11.49 %
intensity of T. gondii proliferation ([3]; 100 µg/mL): 8.10 ± 2.78 %

— publication PMC6290556, “1,4-Disubstituted Thiosemicarbazide Derivatives are Potent Inhibitors of Toxoplasma gondii Proliferation” (Molecules, 2014)
